Assay results taken from patent US6159501A, “Modified release multiple-units dosage composition for release of opioid compounds” (Nycomed Danmark A/S, priority 1996, dated 2000).

Experiments:
[1] = cited from earlier work
[2] = Test 3 (PDMO-018): adverse events
Protocol: Volunteers were asked to report any changes in normal health to the investigator. The investigator recorded in the CRFs the event, date and time for onset and cessation, frequency, severity, outcome, causality, classification and any action taken.
Further a urine sample was screened for drug abuse and pregnancy test was performed for female volunteers. If negative drugs of abuse and pregnancy test the volunteers were challenged in the first period only with a direct i.v. injection of about 0.5 ml naloxone 0.4 mg/ml (Narcan®).

## CN1CC[C@]23c4c5ccc(O)c4O[C@H]2[C@@H](O[C@@H]2O[C@H](C(=O)O)[C@@H](O)[C@H](O)[C@H]2O)C=C[C@H]3[C@H]1C5 [morphine-6-glucuronide]
[1]; in vivo
  half-life, comparison: longer half-life

## CN1CC[C@]23c4c5ccc(O)c4O[C@H]2[C@@H](O)C=C[C@H]3[C@H]1C5 [morphine]
[1]; 10 mg of oral, i.m. or s.c. morphine
  average duration of action for the first single dose: 4 to 5 h

## O=C1CC[C@@]2(O)[C@H]3Cc4ccc(O)c5c4[C@@]2(CCN3CC2CC2)[C@H]1O5 [naltrexone]
[2]
  adverse events (number): 13 AEs
